Laboratory results as given in the NIST ThermoML archive (doi:10.1016/j.fluid.2015.09.010).

Test: xn = mol fraction of the nth substance listed
Conditions: Gas, single sinker densimeter

F/C=C/C(F)(F)F [trans-1,3,3,3-tetrafluoropropene] + CCC
Conditions	mass density [kg/m3]
258.15 K, 100.61 kPa, x1 = 0.3426	3.2856
258.15 K, 196.38 kPa, x1 = 0.168	5.3883
258.15 K, 283.13 kPa, x1 = 0.168	7.9775
258.16 K, 100.07 kPa, x1 = 0.168	2.6751
258.16 K, 161.36 kPa, x1 = 0.3426	5.3604
258.18 K, 242.52 kPa, x1 = 0.3426	8.2589
263.19 K, 101.37 kPa, x1 = 0.3426	3.2412
263.19 K, 283.01 kPa, x1 = 0.3426	9.5248
263.2 K, 100.13 kPa, x1 = 0.168	2.6195
263.2 K, 200.66 kPa, x1 = 0.3426	6.5891
263.2 K, 209.39 kPa, x1 = 0.168	5.6353
263.2 K, 326.36 kPa, x1 = 0.168	9.0877
263.21 K, 228.28 kPa, x1 = 0.5076	8.8723
263.22 K, 100.69 kPa, x1 = 0.5076	3.7656
263.22 K, 168.02 kPa, x1 = 0.5076	6.4065
268.16 K, 332.61 kPa, x1 = 0.3431	11.1032
268.16 K, 332.62 kPa, x1 = 0.3431	11.1044
268.17 K, 101.25 kPa, x1 = 0.168	2.5987
268.17 K, 101.55 kPa, x1 = 0.679	4.2921
268.17 K, 164.37 kPa, x1 = 0.679	7.0737
268.17 K, 201.77 kPa, x1 = 0.3431	6.4883
268.17 K, 227.73 kPa, x1 = 0.679	9.9973
268.18 K, 202.12 kPa, x1 = 0.5076	7.6182
268.18 K, 248.05 kPa, x1 = 0.168	6.5968
268.18 K, 396.76 kPa, x1 = 0.168	11.0064
268.19 K, 101.5 kPa, x1 = 0.3431	3.1825
268.19 K, 104.3 kPa, x1 = 0.5076	3.83
268.2 K, 297.38 kPa, x1 = 0.5076	11.5325
273.16 K, 335.7 kPa, x1 = 0.168	8.9351
273.16 K, 451.06 kPa, x1 = 0.168	12.3973
273.17 K, 100.67 kPa, x1 = 0.3426	3.0918
273.17 K, 101.01 kPa, x1 = 0.168	2.541
273.17 K, 239.94 kPa, x1 = 0.3426	7.62
273.18 K, 102.27 kPa, x1 = 0.5076	3.6758
273.18 K, 200.45 kPa, x1 = 0.5076	7.3826
273.18 K, 209.57 kPa, x1 = 0.168	5.4023
273.18 K, 354.79 kPa, x1 = 0.5076	13.6621
273.18 K, 373.24 kPa, x1 = 0.3426	12.2939
273.18 K, 413.03 kPa, x1 = 0.3426	13.7671
273.2 K, 100.65 kPa, x1 = 0.679	4.1755
273.2 K, 206.18 kPa, x1 = 0.679	8.804
273.21 K, 292.51 kPa, x1 = 0.679	12.8266
278.16 K, 417.17 kPa, x1 = 0.3431	13.5784
278.17 K, 309.55 kPa, x1 = 0.3431	9.7917
278.18 K, 526.01 kPa, x1 = 0.168	14.3898
278.19 K, 99.65 kPa, x1 = 0.5076	3.5099
278.19 K, 100.62 kPa, x1 = 0.3431	3.0318
278.19 K, 101.41 kPa, x1 = 0.168	2.5025
278.19 K, 191.78 kPa, x1 = 0.5076	6.9037
278.19 K, 198.9 kPa, x1 = 0.3431	6.1248
278.19 K, 207 kPa, x1 = 0.168	5.2225
278.19 K, 297.09 kPa, x1 = 0.5076	10.9954
278.19 K, 309.62 kPa, x1 = 0.168	7.9983
278.19 K, 399.16 kPa, x1 = 0.5076	15.2118
278.19 K, 401.11 kPa, x1 = 0.168	10.6025
278.2 K, 223.87 kPa, x1 = 0.679	9.3941
278.21 K, 100.47 kPa, x1 = 0.679	4.0836
278.21 K, 100.48 kPa, x1 = 0.8949	4.7788
278.21 K, 170.26 kPa, x1 = 0.8949	8.2642
278.21 K, 223.89 kPa, x1 = 0.679	9.3939
278.21 K, 278.18 kPa, x1 = 0.8949	13.9927
278.22 K, 349.38 kPa, x1 = 0.679	15.2188
283.16 K, 205.37 kPa, x1 = 0.3426	6.1995
283.16 K, 338.25 kPa, x1 = 0.3426	10.53
283.17 K, 101.18 kPa, x1 = 0.3426	2.9879
283.17 K, 449.59 kPa, x1 = 0.3426	14.3925
283.18 K, 580.09 kPa, x1 = 0.3426	19.2575
283.19 K, 100.44 kPa, x1 = 0.168	2.4312
